Experiment: Blood constituents and health monitoring in rhesus males after EP055 infusion
Type: in vivo, Macaca mulatta
Set-up: Hematocrit: unit not given here
From the text: The physical and behavioral condition of animals are monitored daily at ONPRC. Additional monitoring by Division of Comparative Medicine and/or clinical veterinary staff was provided immediately, at 1 hr, 2 hr and 6 hr post-administration of the contraceptive compound, and daily for up to 30 days after the final drug injection. Criteria used to assess animal health and welfare include: stool and urine quality and quantity, appetite and attitude (bright and alert, quiet, lethargic), pain (not eating, not moving, hunched over, lethargy/disinterest), vomiting, diarrhea, nausea, dehydration (unkempt coat, lack of urine production), and signs of wounds of injury. In addition, the ONPRC Standardized Pain Scoring system is used post-surgically to monitor an animal’s progress and improvement over time. Major criteria include animal appearance, posture, activity (including stool and urine production), vocalization and atypical behaviors.
Prior to infusion of EP055, each male was sedated with ketamine by the surgical staff at ONPRC and transported to the operating room. After positioning in dorsal recumbency, the male was intubated and placed under inhalant (isoflurane) anesthesia. Bilateral intravenous catheters were placed in cephalic veins, one for infusion and one for back-up. A percutaneous arterial line was placed in the right femoral artery for direct blood pressure measurement. Invasive blood pressure, heart rate, SpO2, and respirations were monitored by the surgical staff throughout the procedure. Initially, the low doses of EP055 in 5% DMSO-PBS 7.6 was infused by i.v. at 75-80 mg/kg, using a Medfusion 3500 pump (Smiths Medical, St. Paul, MN), and was started at a low flow rate ([…]). In 3 of 4 males, a 5-10% increase in blood pressure and heart rate were noted within the first 2-3 minutes of infusion of EP055. In these cases, the infusion was temporarily suspended until these parameters subsequently declined to normal. The infusion rate was then doubled to 1.2 ml/kg/min after 5-10 minutes and the final volume of EP055 infusate was administered. Blood pressure and heart rate remained normal throughout the rest of the infusion interval. The total volume of EP055 infusate ranged from 72 ml – 136 ml, depending upon the weight of the animal, and the duration of infusion was 10-13 minutes. Following completion of the infusion, all animals recovered normally. Animals were monitored by clinical veterinary staff immediately, at 1 hr, 2 hr and 6-8 hr post-infusion, and daily for up to 30 days after the final infusion of EP055. […] Two weeks after the infusion of the low dose and collection of the next set of baseline semen samples, males were infused with the high dose of EP055 (125-130 mg/kg) as described above, and monitored similarly.
Blood was collected from the brachial vein at the time of each semen collection, and used to determine complete blood counts and serum biochemistry tests (including electrolytes, glucose, lipids, proteins, enzymes and metabolic by-products) as performed in the Clinical Pathology Laboratory in the Division of Comparative Medicine at ONPRC.

[1] = post high dose 125–130 mg/kg, 6-8 hrs
[2] = post high dose 125–130 mg/kg, 28-30 hrs
[3] = post high dose 125–130 mg/kg, 78 hr
[4] = post low dose 75–80 mg/kg, 6-8 hrs

COC(=O)NNc1nc(Nc2ccc(NC(C)=O)c(O)c2)nc(SCC(=O)O)n1 [EP055]
increase in blood pressure and heart rate (3 of 4 males, first 2-3 minutes of low dose infusion (75-80 mg/kg)): 5-10%
blood constituents versus baseline levels (after low or high dose): no clinically significant difference
side effects, monitoring of blood and organ function (during and after drug administration): no indications of any side effects or health warning signs
ALT (alanine aminotransferase) and glucose levels (during treatment): rose during treatment
adverse effects (high dose 125-130 mg/kg): no adverse effects were observed
neutrophil numbers versus reference range (2.4–9.6 x 10^3/mm^3) (high dose, 6 hrs): slightly above the high end of the reference range
long-term effects on animals (in vivo): no long- term effects
adverse effects (low dose 75-80 mg/kg, monitored up to 30 days): No adverse effects were observed
ALT [1]: 49.7 ± 3.6 U/l
AST [1]: 68.3 ± 6.8 U/l
Albumin [1]: 4.7 ± 0.1 g/dL
Alkaline Phosphatase [1]: 94.0 ± 4.8 U/l
BUN [1]: 18.8 ± 2.3 mg/dL
Basophils [1]: 0.5 ± 0.1%
CREAT [1]: 1.0 ± 0.1 mg/dL
Chloride [1]: 108.7 ± 0.3 mEq/l
Cholesterol [1]: 146.3 ± 18.1 mg/dL
Eosinophils [1]: 0.9 ± 0.1%
Erythrocytes [1]: 6.1 ± 0.2 x 10^6/mm^3
GGT [1]: 71.0 ± 1.0 U/l
GLUC [1]: 101.3 ± 10.2 mg/dL
Hematocrit [1]: 45.2 ± 1.0
Hemoglobin [1]: 14.7 ± 0.4 g/dL
Leukocytes [1]: 12.3 ± 1.8 x 10^3/mm^3
Lymphocytes [1]: 21.6 ± 9.9%
MCH [1]: 24.2 ± 0.4 pg/cell
MCHC [1]: 32.5 ± 0.1 g/dL
MCV [1]: 74.5 ± 1.1 fl/cell
Magnesium [1]: 2.2 ± 0.1 mg/dL
Monocytes [1]: 5.2 ± 0.4%
Neutrophils [1]: 10.3 ± 1.4 x 10^3/mm^3
Phosphorus [1]: 5.2 ± 0.4 mg/dL
Platelets [1]: 298.3 ± 39.0 x 10^6
Potassium [1]: 4.0 ± 0.1 mEq/l
Sodium [1]: 147.7 ± 0.6 mEq/l
Total Bilirubin [1]: 0.2 ± 0.1 mg/dL
Total Protein [1]: 7.6 ± 0.2 g/dL
Triglycerides [1]: 84.3 ± 19.8 mg/dL
ALT [2]: 74.0 ± 10.8 U/l
AST [2]: 83.3 ± 14.3 U/l
Albumin [2]: 4.7 ± 0.1 g/dL
Alkaline Phosphatase [2]: 95.7 ± 3.6 U/l
BUN [2]: 15.3 ± 2.4 mg/dL
Basophils [2]: 0.5 ± 0.1%
CREAT [2]: 1.0 ± 0.0 mg/dL
Chloride [2]: 108.7 ± 0.6 mEq/l
Cholesterol [2]: 147.3 ± 23.4 mg/dL
Eosinophils [2]: 1.4 ± 0.1%
Erythrocytes [2]: 6.1 ± 0.2 x 10^6/mm^3
GGT [2]: 71.3 ± 3.4 U/l
GLUC [2]: 92.0 ± 9.7 mg/dL
Hematocrit [2]: 45.9 ± 0.9
Hemoglobin [2]: 15.0 ± 0.4 g/dL
Leukocytes [2]: 7.7 ± 1.4 x 10^3/mm^3
Lymphocytes [2]: 32.4 ± 4.3%
MCH [2]: 24.4 ± 0.3 pg/cell
MCHC [2]: 32.7 ± 0.2 g/dL
MCV [2]: 74.8 ± 1.0 fl/cell
Magnesium [2]: 1.9 ± 0.0 mg/dL
Monocytes [2]: 5.5 ± 0.6%
Neutrophils [2]: 5.1 ±0.8 x 10^3/mm^3
Phosphorus [2]: 3.2 ± 0.6 mg/dL
Platelets [2]: 301.7 ± 36.5 x 10^6
Potassium [2]: 4.0 ± 0.1 mEq/l
Sodium [2]: 149.0 ± 0.0 mEq/l
Total Bilirubin [2]: 0.2 ± 0.1 mg/dL
Total Protein [2]: 7.8 ± 0.2 g/dL
Triglycerides [2]: 59.3 ± 18.5 mg/dL
ALT [3]: 53.0 ± 7.3 U/l
AST [3]: 30.0 ± 3.1 U/l
Albumin [3]: 4.8 ± 0.1 g/dL
Alkaline Phosphatase [3]: 101.5 ± 8.7 U/l
BUN [3]: 18.3 ± 2.2 mg/dL
Basophils [3]: 0.5 ± 2.3%
CREAT [3]: 1.0 ± 0.0 mg/dL
Chloride [3]: 108.5 ± 0.9 mEq/l
Cholesterol [3]: 152.0 ± 19.4 mg/dL
Eosinophils [3]: 1.4 ± 4.5%
Erythrocytes [3]: 5.8 ± 4.5 x 10^6/mm^3
GGT [3]: 69.3 ± 3.8 U/l
GLUC [3]: 85.0 ± 8.7 mg/dL
Hematocrit [3]: 43.3 ± 4.5
Hemoglobin [3]: 14.1 ± 2.3 g/dL
Leukocytes [3]: 9.7 ± 2.3 x 10^3/mm^3
Lymphocytes [3]: 34.6 ± 4.5%
MCH [3]: 24.3 ± 4.5 pg/cell
MCV [3]: 74.9 ± 2.3 fl/cell
Magnesium [3]: 1.9 ± 0.1 mg/dL
Monocytes [3]: 5.6 ± 2.3%
Neutrophils [3]: 5.4 ± 1.1 x 10^3/mm^3
Phosphorus [3]: 4.2 ± 0.8 mg/dL
Platelets [3]: 292.8 ± 48.1 x 10^6
Potassium [3]: 4.4 ± 0.2 mEq/l
Sodium [3]: 149.5 ± 1.2 mEq/l
Total Bilirubin [3]: 0.1 ± 0.0 mg/dL
Total Protein [3]: 7.8 ± 0.1 g/dL
Triglycerides [3]: 68.0 ± 10.6 mg/dL
ALT [4]: 44.8 ± 2.0- U/l
AST [4]: 49.8 ± 3.1 U/l
Albumin [4]: 4.7 ± 0.0 g/dL
Alkaline Phosphatase [4]: 129.8 ± 19.2 U/l
BUN [4]: 17.2 ± 1.9 mg/dL
Basophils [4]: 0.6 ± 0.1%
CREAT [4]: 1.0 ± 0.0 mg/dL
Chloride [4]: 109.3 ± 1.5 mEq/l
Cholesterol [4]: 154.5 ± 19.0 mg/dL
Eosinophils [4]: 1.2 ± 0.3%
Erythrocytes [4]: 5.9 ± 0.2 x 10^6/mm^3
